According to US6951869B2, “Use of leukotriene receptor antagonist for treatment of scarring” (priority 2002, dated 2005):

What was measured:
capsular contracture = assay: Treatment of capsular contracture after breast implantation in patients (case reports, Bakers Class); format: in vivo, human
Procedure: The breasts remained soft until 4 years and 2 months following the operation. The left breast then developed Bakers Class III capsular contracture, but the right breast remained soft. Patient was then placed on ACCOLATE® 20 mg, twice daily. One month following the prescription of ACCOLATE®, the left breast was softer (Bakers Class II) and three months later, it was even softer (Bakers Class I). Four months following ACCOLATE® therapy, both breasts were soft again (Bakers Class I). […] Two weeks following the operation, patient developed bilateral Bakers Class III capsular contractures. […] Three months following the ACCOLATE® therapy, both breasts had achieved Bakers Class I status and at 8 months post-ACCOLATE® therapy, both breasts remained soft and at Bakers Class I level. […] Twenty days following the second operation, patient noted an increasing firmness of both breasts and breast massage and vitamin E therapy was continued. However, four months following the second operation, patient developed a severe capsular contracture in the left breast (Bakers Class IV). The right breast, however, remained soft (Bakers Class I). Patient was placed on ACCOLATE® at 20 mg twice daily. […] person was diagnosed with infiltrating ductal carcinoma in the left breast in June of 2000. Patient underwent a modified radical mastectomy with immediate reconstruction with placement of a tissue expander. […] Postoperatively, patient received chemotherapy (ADRIAMYCIN®, Cyclophosphamide, TAXOL®) and was placed on a study protocol for HERCEPTIN®. In February of 2001, patient underwent exchange of the tissue expander for a […] textured saline implant which was placed submuscularly. Six weeks following the implant placement, patient received local radiation therapy to the left breast of which they received a total of 5000 rads. Immediately following the radiation therapy, patient noted redness and blistering of the skin surrounding the left breast. Three weeks post-radiation therapy, patient noted hardening of the left breast mound, which quickly progressed to a Bakers Class IV capsular contracture by the fifth week following radiation therapy. […] Patient was then placed on ACCOLATE® therapy at 20 mg twice a day. […] Additionally, patient noted a significant improvement in the mastectomy scar which had been extremely hard and firm prior to the ACCOLATE® therapy. […] person underwent augmentation mammoplasty in 1986. 250 cc silicon implants were placed on each side above the muscle. Postoperatively the subject had no complications. The breasts remained soft for 5 years. In 1991, subject noted increasing firmness in both breasts. Subject received no treatment at that time. 17 years after surgery, subject was presented for possible surgical intervention. Upon examination, subject was noted to have Bakers Class IV capsular contractures bilaterally and was placed on Zafirlukast (Accolate®) 20 mg two times daily. […] Three months post Zafirlukast (Accolate®) therapy, subject went progressed a Bakers Class IV to a Bakers Class III on the right and a Bakers Class II on the left.

[1] = 20 mg twice daily accepted dosage, adults and children ages 12 and up; cited from earlier work
mastectomy scar = assay: Effect on mastectomy scar in a patient (case report); format: in vivo, human; details: Example IV patient, scar extremely hard and firm before therapy; 20 mg twice a day
Excerpt: Person was diagnosed with infiltrating ductal carcinoma in the left breast in June of 2000. Patient underwent a modified radical mastectomy with immediate reconstruction with placement of a tissue expander. […] Postoperatively, patient received chemotherapy (ADRIAMYCIN®, Cyclophosphamide, TAXOL®) and was placed on a study protocol for HERCEPTIN®. In February of 2001, patient underwent exchange of the tissue expander for a […] textured saline implant which was placed submuscularly. Six weeks following the implant placement, patient received local radiation therapy to the left breast of which they received a total of 5000 rads. Immediately following the radiation therapy, patient noted redness and blistering of the skin surrounding the left breast. Three weeks post-radiation therapy, patient noted hardening of the left breast mound, which quickly progressed to a Bakers Class IV capsular contracture by the fifth week following radiation therapy. […] Patient was then placed on ACCOLATE® therapy at 20 mg twice a day. […] Additionally, patient noted a significant improvement in the mastectomy scar which had been extremely hard and firm prior to the ACCOLATE® therapy.

[2] = Example IV patient, 20 mg twice a day, after one month

Compound: vitamin E
- Relief of capsular contracture (capsular contracture; Example IV patient, Bakers Class IV, given with breast massage, before ACCOLATE therapy): without relief

Compound: COc1cc(C(=O)NS(=O)(=O)c2ccccc2C)ccc1Cc1cn(C)c2ccc(NC(=O)OC3CCCC3)cc12 [ACCOLATE®]
- Reported side effect: headaches [1]: 12.9%
- Reported side effect: nausea [1]: 3.1%
- Mastectomy scar appearance and hardness (mastectomy scar): both softer and less noticeable
- Softness of breast implant (capsular contracture; Example IV patient, post-radiation Bakers Class IV before therapy, 20 mg twice a day, two weeks): noticeable softening
- Bakers Class of capsular contracture, left breast implant (capsular contracture; [2]): approaching a Bakers Class I softness
- Pain and distortion (capsular contracture; [2]): completely gone
- Softness of both breasts (capsular contracture; Example V patient, bilateral Bakers Class IV before therapy, 20 mg two times daily, 3 weeks): some improvement
